Measured values: patent US11879145B2, “Reagents and methods for replication, transcription, and translation in semi-synthetic organisms” (The Scripps Research Institute, priority 2019, dated 2024)

Experiments:
sfGFP^151(AXC) [1] = experiment: In vivo translation screen of XTPs/YTPs: protein shift (AzK incorporation) by DBCO-TAMRA western blot; assay type: cell-based, E. coli; details: TPT3TP 30 μM, dCNMO-dTPT3 UBP, strain ML2
Experimental: In vivo Translation Screen of XTPs/YTPs. An overnight culture of the SSO strain ML2 carrying the pGEX-MbPylRS TetR plasmid was grown in 2×YT supplemented with 50 mM potassium phosphate, […] chloramphenicol and 100 μg/mL carbenicillin (herein referred to in this section as “media”), then diluted back to an OD600 of 0.03 in the same media and grown to an OD600 of 0.4 to 0.6. The culture was then chilled with shaking over ice-water for 15 minutes then pelleted by centrifugation at 3,200×g for 10 min. Cells were then resuspended and washed with ice-cold ddH2O twice then resuspended in ice-cold ddH2O to OD600 of 55-65. The electrocompetent cells (50 μL) and 1 ng of Golden Gate assembled plasmid with the UBP within the sfGFP and tRNAPyl genes (see Golden Gate Assembly of Plasmids) were transferred to a pre-chilled electroporation cuvette (0.2-cm-gap), then electroporated (Gene Pulser II; Bio-Rad) according to manufacturer's recommendations (voltage […], capacitor 2.5 μF, resistor 200Ω), and then immediately diluted with 950 μL of media. An aliquot (40 μL) of the transformation was then diluted five-fold in media supplemented with dCNMOTP (25 μM) and dTPT3TP (10 μM) for a final volume of 200 μL then allowed to recover for 1 h shaking at 37° C. Two-fold dilutions of the recovery were plated onto solid media supplemented with zeocin (50 μg/mL), dCNMOTP (10 μM), dTPT3TP (10 μM), and agar (2% w/v), then grown at 37° C. for 18 h. Single colonies were picked and grown in media (300 μL) supplemented with 50 μg/mL zeocin and provided dCNMOTP (25 μM) and dTPT3TP (10 μM) (herein afterward referred to in this section as “growth media”). The culture was monitored for cell growth (Envision 2103 Multilabel Plate Reader with a 590/20 nm filter) and then collected at an OD600˜1.0. An aliquot (50 μL) was subjected to plasmid isolation using the ZR Plasmid Prep Kit (Zymo Research). Isolated plasmids were then subjected to the streptavidin gel shift assay described below (using primers P3-4 and P5-6, Table S1) to determine UBP retention.
A colony with excellent UBP retention was then diluted to an OD600˜0.01 in growth media and grown to OD600˜0.4-0.6. This culture was then divided into multiple 300 μL cultures and for the screen of XTP analogs, each was provided with the corresponding XTP (at either 25 μM or 250 μM) or ddH2O for “−XTP” samples, TPT3TP (30 μM), and AzK (10 mM). For the screen of YTP analogs, each 300 μL culture was provided with the corresponding YTP (at either 25 μM or 250 μM) or ddH2O for “−YTP” samples, NaMTP (250 μM), and AzK (10 mM). Samples were shielded from light after addition of AzK to prevent photodegradation. These samples were then grown at 37° C. for 20 min before adding 1 mM IPTG and grown at 37° C. for an additional 1 h to induce T7 RNAP and transcription of tRNAPyl and PylRS. From this point on, cells were monitored for growth and fluorescence. Expression of sfGFP was then induced with anhydrotetracycline (100 ng/mL). After an additional 3 h of growth at 37° C., cells were collected (230 μL for affinity purification of sfGFP), cooled, and then pelleted and stored at −80° C. before protein purification.
Affinity Purification of sfGFP. Cell pellets collected from translation experiments were resuspended in BugBuster (100 μL 1×, EMD Millipore) and shaken at room temperature for 15 min. […]

sfGFP^151(AXC) [2] = experiment: Optimization of unnatural ribonucleotide triphosphate concentrations (sfGFP fluorescence and protein shift); assay type: cell-based, E. coli
Experimental: Examples 1A, 1B, and 2 identified dCNMO-dTPT3 as a competent UBP for the storage of information, and TAT1TP and NaMTP or 5FMTP as competent ribonucleoside triphosphates for its retrieval. Upon transformation with the same plasmids used above, 10 μM dTPT3TP and 25 μM dCNMOTP were provided in the growth media, which was then also supplemented with TAT1TP at concentrations ranging from 100 μM to 12.5 μM, and either NaMTP or 5FMTP at concentrations ranging from 200 μM to 12.5 μM, all in series of 2-fold dilutions, and after the addition of 1 mM AzK, the cells were induced to express sfGFP. […] In both cases, fluorescence was higher at lower concentrations of NaMTP or 5FMTP (due to increased production of contaminating natural sfGFP, see below). Additionally, cells generally produced higher fluorescence at higher concentrations of TAT1TP. […] Protein production was again quantified via the gel shift assay (FIG. 6C and FIG. 6D). Generally, as the concentration of NaMTP decreased below 200 μM, incrementally lower fidelity of AzK incorporation into sfGFP was observed, while with use of 5FMTP this reduction in fidelity was only observed below a concentration of 50 μM. Clearly lower concentrations of 5FMTP can be used without compromising fidelity. Cells provided with a high concentration of 5FMTP (≥50 µM) produced high protein shifts at all concentrations of TAT1TP explored (100 μM, 50 μM, 25 μM, or 12.5 μM).
Optimization of in vivo Translation Conditions. An overnight culture of the SSO strain ML2 carrying the pGEX-MbPylRS TetR plasmid was grown in 2×YT supplemented with 50 mM potassium phosphate, […] chloramphenicol and 100 μg/mL carbenicillin (herein referred to in this section as “media”), then diluted back to an OD600 of 0.03 in the same media and grown to an OD600 of 0.4-0.6. The culture was then chilled with shaking over ice-water for 15 min then pelleted by centrifugation at 3,200×g for 10 min. Cells were then resuspended and washed with ice-cold ddH2O twice then resuspended in ice-cold ddH2O to an OD600 of 55-65. The electrocompetent cells (50 μL) and ˜1 ng of Golden Gate assembled plasmid with the UBP within the sfGFP and tRNAPyl genes (see Golden Gate Assembly of Plasmids) were transferred to a pre-chilled electroporation cuvette (0.2-cm-gap), then electroporated (Gene Pulser II; Bio-Rad) according to manufacturer's recommendations (voltage […], capacitor 2.5 μF, resistor 200Ω), and then immediately diluted with 950 μL of media. […] The culture was monitored for cell growth (Envision 2103 Multilabel Plate Reader with a 590/20 nm filter) and then collected at an OD600˜1.0. […]

SMILES: COc1cc2ccccc2cc1[C@@H]1O[C@H](COP(=O)(O)OP(=O)(O)OP(=O)(O)O)[C@@H](O)[C@H]1O [NaMTP]
- sfGFP protein gel shift (ncAA incorporation) (sfGFP^151(AXC) [1]; XTP 25 μM): 86%
- sfGFP protein gel shift (ncAA incorporation) (sfGFP^151(AXC) [1]; XTP 250 μM): 98%
- Concentration for combined optimization of protein purity and yield (sfGFP^151(AXC) [2]; NaMTP and TAT1TP pair): 200 µM
- XTP concentration below which lower fidelity of AzK incorporation into sfGFP was observed (sfGFP^151(AXC) [2]; with TAT1TP 12.5-100 μM): 200 µM
